Results reported in publication PMC8074792, “An ω-3, but Not an ω-6 Polyunsaturated Fatty Acid Decreases Membrane Dipole Potential and Stimulates Endo-Lysosomal Escape of Penetratin” (Frontiers in Cell and Developmental Biology, 2021).

Tests used:
Type in all cases: cell-based, human
JY cells [1] = assay: Membrane fluidity, TMA-DPH fluorescence anisotropy; settings: 200 μM sterol 1 h or 50 μM fatty acid 48 h, 37°C, n = 6, vs control
Procedure: (§1) 4′-(trimethylammonio)-diphenylhexatriene (TMA-DPH) was purchased from Sigma-Aldrich, dissolved in tetrahydrofuran and used for determination of membrane fluidity as described previously ([Batta et al., 2018]). […] Fluorescence intensities were measured without washing using a Fluorolog-3 spectrofluorometer (Horiba Jobin Yvon, Edison, NJ, United States) with the temperature of the cuvette holder adjusted to 37°C by a circulating water bath. The fluorescence anisotropy (r) of TMA-DPH was determined in the L-format after excitation at 352 nm and measurement of fluorescence intensities at 430 nm according to the formula: […]

THP-1 cells [2] = assay: Membrane fluidity, TMA-DPH fluorescence anisotropy; settings: 200 μM sterol 1 h or 50 μM fatty acid 48 h, 37°C, n = 6, vs control
Procedure: as §1

JY cells [3] = assay: Membrane dipole potential, di-8-ANEPPS excitation ratio, spectrofluorometry
Procedure: (§2) The human acute monocytic leukemia-derived cell line THP-1 and the human Epstein-Barr virus (EBV) transformed lymphoblastoid cell line JY were obtained from the American Type Culture Collection (Manassas, VA, United States) and cultivated according to their specifications. […] As controls, cells were treated with the corresponding amounts of native MβCD complexes not containing sterols. To study the effects of fatty acids, cells were incubated for 48 h in medium supplemented with saturated stearic acid (SA, Sigma Aldrich), ω-3 polyunsaturated α-linolenic acid (ALA, Sigma Aldrich) or ω-6 polyunsaturated γ-linolenic acid (GLA, Sigma Aldrich) at various concentrations ranging from 12.5 to 50 μM. […] After washing, cells were kept on ice and samples were subsequently warmed to 37°C right before measurements carried out with a Fluorolog-3 spectrofluorometer (Horiba Jobin Yvon, Edison, NJ, United States). During measurements, the cuvette holder was kept at 37°C using a circulating water bath. Excitation spectra were recorded between 380 and 550 nm with the detected emission wavelength set to 660 nm in order to minimize effects of possible changes in membrane fluidity ([Clarke and Kane, 1997]). The ratio of fluorescence intensities integrated between excitation wavelengths 410–440 nm and 490–520 nm was calculated for each sample, which positively correlates with the magnitude of DP ([Clarke and Kane, 1997]; [Kovacs et al., 2017]; [Batta et al., 2020]).

THP-1 cells [4] = assay: as above
Procedure: as §2

JY cells [5] = assay: Membrane hydration, PY3174 generalized polarization, confocal microscopy; settings: 200 μM sterol 1 h or 50 μM fatty acid 48 h, efficacy order 6KC > cholesterol ≥ 7DHC, effects of 7DHC and SA not statistically significant
Procedure: (§3) For these measurements, cells were labeled with 10 μM PY3174 for 20 min at room temperature. […] During processing, segmentation of images into membrane and non-membrane pixels was carried out with the manually seeded watershed algorithm using a custom-written MATLAB program as described previously ([Kovacs et al., 2017]). The average value of general polarization correlating with the degree of membrane compactness ([[…] et al., 2013]) was calculated from the data of cell membrane pixels after background subtraction using […]

THP-1 cells [6] = assay: as above; settings: 200 μM sterol 1 h or 50 μM fatty acid 48 h, efficacy order 6KC > cholesterol ≥ 7DHC, all statistically significant
Procedure: as §3

JY cells [7] = assay: Membrane dipole potential, F66 emission ratio, flow cytometry; settings: n = 5
Procedure: (§4) The human acute monocytic leukemia-derived cell line THP-1 and the human Epstein-Barr virus (EBV) transformed lymphoblastoid cell line JY were obtained from the American Type Culture Collection (Manassas, VA, United States) and cultivated according to their specifications. […] As controls, cells were treated with the corresponding amounts of native MβCD complexes not containing sterols. To study the effects of fatty acids, cells were incubated for 48 h in medium supplemented with saturated stearic acid (SA, Sigma Aldrich), ω-3 polyunsaturated α-linolenic acid (ALA, Sigma Aldrich) or ω-6 polyunsaturated γ-linolenic acid (GLA, Sigma Aldrich) at various concentrations ranging from 12.5 to 50 μM. […] After washing, the fluorescence intensities of cells were determined with a FACS Aria III flow cytometer (Becton Dickinson, Mountain View, CA, United States) at 37°C. […] Data analysis was carried out in FCS Express (De Novo Software, Los Angeles, CA, United States). The ratio of emitted intensities in the two wavelength ranges (N^∗/T^∗) was determined for each cell and the average value was calculated for each sample from the data of living cells gated on FSC-SSC dot plots. The value of N^∗/T^∗ ratio negatively correlates with the magnitude of DP ([Kovacs et al., 2017]).

THP-1 cells [8] = assay: as above; settings: n = 5
Procedure: as §4

JY cells [9] = assay: Penetratin uptake and endo-lysosomal escape, time-correlated flow cytometry; settings: 37°C
Excerpt: (§5) Penetratin ([…]-amide, molecular weight 2245.75 g/mol) was synthesized manually on TentaGel R RAM (Rapp Polymere, Tübingen, Germany), a low crosslinked polystyrene PEG copolymer resin by the solid-phase method of Merrifield with standard Fmoc chemistry, as described in detail in our recent study ([Batta et al., 2020]). After coupling the last arginine, one half of the penetratin was reacted with AFDye532 N-hydroxysuccinimide ester (molecular weight 723.77 g/mol, Fluoroprobes, Scottsdale, AZ, United States), while the other half with 5(6)-carboxynaphthofluorescein N-succinimidyl ester (molecular weight 573.51 g/mol, Darmstadt, Germany). Completion of the coupling was assessed by Kaiser test, which was followed by deprotection and release from the resin. After filtration and precipitation with cold diethyl ether, the crude products were purified by preparative reversed-phase HPLC (JASCO, Victoria, BC, Canada) on a C18 column and lyophilized. The purity of the products (>95%) was assessed by reversed-phase HPLC (JASCO) equipped with an analytical C18 column. […] These values well correlated with the predicted masses of the labeled peptides (2983.59 and 2833.33, respectively).
(§6) Total cellular penetratin uptake and endo-lysosomal escape was determined as described previously ([Batta et al., 2020]). Briefly, control THP-1 or JY cells and those treated with 50 μM ALA, GLA or SA for 48 h at 37°C were incubated in the continuous presence of 5 μM AFDye532-penetratin, 5 μM NF-penetratin and 0.25 μg/ml DAPI at 37°C in the thermostated sample holder of a FACS Aria III flow cytometer. The fluorescence intensity of DAPI was measured using an excitation at 405 nm and an emission filter 450/20 nm. AFDye532 and NF were excited at 488 and 561 nm, respectively, and their fluorescence was determined using emission filters 530/30 and 670/14 nm, respectively. Measurements started immediately after addition of DAPI and penetratin and continued for 20 min at 37°C. Experimental data were analyzed first in FCS Express. Time-correlated fluorescence intensity values of DAPI-negative living cells were exported after spectral compensation and the moving averages of samples were calculated with a window size of 10 s. […] During analysis, fluorescence intensity values were first normalized to the average intensity in the first time window, which was followed by calculation of the fluorescence ratio from the normalized values.

THP-1 cells [10] = assay: as above; settings: 37°C
Excerpt: as §5, §6

[11] = sterol-MβCD complex, 60 min, room temperature, at the maximal applied concentration of 200 μM, n = 5, statistically significant
[12] = 50 μM fatty acid 48 h, then 50 or 200 μM cholesterol 1 h
[13] = 50 μM fatty acid 48 h, 5 μM AFDye532- and 5 μM NF-penetratin, compared at 900 s, n = 5
[14] = fatty acid 12.5-50 μM for 48 h, result at maximal 50 μM, n = 5
[15] = 5 μM AFDye532-penetratin + 5 μM NF-penetratin, flow cytometry, living cells
[16] = 5 μM AFDye532-penetratin + 5 μM NF-penetratin, continuous presence, flow cytometry, DAPI-negative living cells
[17] = 5 μM of each labeled penetratin, decline followed by a continuous gradual increase
[18] = agent 20-200 μM, 10 min, 0.05% Pluronic F-127, at least 20,000 living cells per sample
[19] = agent 20-200 μM, 10 min, room temperature, 0.05% Pluronic F-127, measured at 37°C, mean of 5 experiments

| Compound | TMA-DPH fluorescence anisotropy (inversely correlates with membrane fluidity) (JY cells [1]) | TMA-DPH fluorescence anisotropy (inversely correlates with membrane fluidity) (THP-1 cells [2]) | Rexc, di-8-ANEPPS (JY cells [3]; [11]) | Rexc, di-8-ANEPPS (THP-1 cells [4]; [11]) | PY3174 generalized polarization in the cell membrane (inversely correlates with membrane hydration) (JY cells [5]) | PY3174 generalized polarization in the cell membrane (inversely correlates with membrane hydration) (THP-1 cells [6]) | further results |
| --- | --- | --- | --- | --- | --- | --- | --- |
| CC(C)CCC[C@@H](C)[C@H]1CC[C@H]2[C@@H]3CC=C4C[C@@H](O)CC[C@]4(C)[C@H]3CC[C@]12C [cholesterol] | significantly elevated | significantly elevated | moderately increased | moderately increased | shifted toward the positive direction | shifted toward the positive direction | – |
| CCCCCCCCCCCCCCCCCC(=O)O [SA, stearic acid] | did not reach statistical significance | did not reach statistical significance | – | – | increased the generalized polarization, albeit to a miniscule extent | increased the generalized polarization, albeit to a miniscule extent | effect of fatty acid pretreatment on cholesterol-induced DP elevation (Rem, F66) (JY cells [7]; [12]): a tendency to augment the cholesterol-induced DP changes; effect of fatty acid pretreatment on cholesterol-induced DP elevation (Rem, F66) (THP-1 cells [8]; [12]): a tendency to augment the cholesterol-induced DP changes; Rem, F66 (THP-1 cells [8]; fatty acid 12.5-50 μM for 48 h): opposite changes were observed in response to SA or GLA with the former not reaching the level of significance; ratio of NF and AFDye532 intensities (endo-lysosomal escape of penetratin) vs controls (JY cells [9]; [13]): no significant changes; ratio of NF and AFDye532 intensities (endo-lysosomal escape of penetratin) vs controls (THP-1 cells [10]; [13]): no significant changes; Rexc, di-8-ANEPPS (JY cells [3]; [14]): slightly higher; Rexc, di-8-ANEPPS (THP-1 cells [4]; [14]): slightly higher |
| RQIKIWFQNRRMKWKK-amide [penetratin] | – | – | – | – | – | – | duration of fast increase of NF signal (endo-lysosomal escape of penetratin), followed by slower continuous rise (JY cells [9]; [15]): 180 to 240 s; time of saturation of AFDye532 signal (total cellular penetratin concentration) (JY cells [9]; [16]): 120 to 180 s; time course of ratio of NF and AFDye532 (fraction of penetratin in the cytosol) (JY cells [9]; [17]): initially declined; duration of fast increase of NF signal (endo-lysosomal escape of penetratin), followed by slower continuous rise (THP-1 cells [10]; [15]): 180 to 240 s; time of saturation of AFDye532 signal (total cellular penetratin concentration) (THP-1 cells [10]; [16]): 120 to 180 s; time course of ratio of NF and AFDye532 (fraction of penetratin in the cytosol) (THP-1 cells [10]; [17]): initially declined |
| CC(C)CCC[C@@H](C)[C@H]1CC[C@H]2[C@@H]3CC(=O)[C@H]4C[C@@H](O)CC[C@]4(C)[C@H]3CC[C@]12C [6KC, 3β-hydroxy-5α-cholestan-6-one] | did not reach statistical significance | did not reach statistical significance | robustly elevated | robustly elevated | shifted toward the positive direction | shifted toward the positive direction | Rem, F66 (emission ratio N*/T*, 470-490 nm / 564-606 nm, negatively correlates with DP) (JY cells [7]; [18]): dose-dependent decreases; Rem, F66 (emission ratio N*/T*, 470-490 nm / 564-606 nm, negatively correlates with DP) (THP-1 cells [8]; [18]): dose-dependent decreases; Rexc, di-8-ANEPPS (excitation ratio 410-440 nm / 490-520 nm, positively correlates with DP) (JY cells [3]; [19]): dose-dependently increased; Rexc, di-8-ANEPPS (excitation ratio 410-440 nm / 490-520 nm, positively correlates with DP) (THP-1 cells [4]; [19]): dose-dependently increased |
| CC(C)CCC[C@@H](C)[C@H]1CC[C@H]2C3=CC=C4C[C@@H](O)CC[C@]4(C)[C@H]3CC[C@]12C [7DHC, 7-dehydrocholesterol] | significantly elevated | significantly elevated | slightly raised | slightly raised | shifted toward the positive direction | shifted toward the positive direction | – |
